According to PMC10832398 (Molecular cancer therapeutics, 2023):
Values joined by “and” are separate entries in the source; they are usually repeats but may differ in a detail not shown here. Equal values may be shown once.

Experiments:
HS01 cells = assay: Combination matrix cell viability assay; format: cell-based, human
HS02 cells = assay: Combination matrix cell viability assay; format: cell-based, human
[1] = tested on: phospho-AKT, phospho-FAK, phospho-Src, EphA2, cyclin D1, p21 in HS01 cells; assay: Western blots of whole cell lysates of HS01 cells; format: cell-based, human; conditions: HS01, 24h
[2] = tested on: primary human vestibular schwannoma (VS) cells; assay: ApoTox-Glo viability in primary VS cells; format: cell-based; conditions: 96 hrs; omipalisib 16nM; dasatinib 200, 400, and 800nM
[3] = Homo sapiens, 72 h, HS01, single drug within the combination matrix
[4] = Homo sapiens, 72 h, HS02, single drug within the combination matrix
[5] = HS01, single drug within the combination matrix, 72h
[6] = HS02, single drug within the combination matrix, 72h

## CCn1c(=O)c(-c2cc[nH]n2)cc2c(C)nc(N)nc21 [Voxtalisib]
HS01 cells; [3]
  GI50: > 10000 nM
HS02 cells; [4]
  GI50: > 10 µM

## Nc1cc(C(F)(F)F)c(-c2cc(N3CCOCC3)nc(N3CCOCC3)n2)cn1 [Buparlisib]
HS01 cells; [3]
  GI50: 4300 nM
HS02 cells; [4]
  GI50: 4.9 µM

## COc1ncc(-c2ccc3nccc(-c4ccnnc4)c3c2)cc1NS(=O)(=O)c1ccc(F)cc1F [Omipalisib, omipalisib]
HS01 cells; [5]
  GI50: 20 nM
HS01 cells; Homo sapiens, alone in HS01 cells
  GI50: 50 to 80 nM
HS01 cells; omipalisib/dasatinib matrix, Fig. 1A (HS01, HS02)
  synergistic doses: 39 to 156 nM
[1]; 0.1 μM
  Cyclin D1 levels: reduced
  p21 levels: not observed
[1]; omipalisib 4 and 16nM alone or with dasatinib 100 and 400nM
  Phospho-AKT (T308 and S473) decrease: 91-99%
[1]; omipalisib alone
  phosphorylated Src-Tyr527 levels compared to vehicle: increased
[2]
  reduction in viability (mean fold change of all VS tumors): ≥ 20%

## CNC(=O)c1ccccc1Nc1nc(Nc2ccc(N3CCOCC3)cc2OC)ncc1Cl [TAE226]
HS01 cells; [5]
  GI50: 1000 nM
HS02 cells; [6]
  GI50: 2.1 µM

## CS(=O)(=O)N1CCN(Cc2cc3nc(-c4cccc5[nH]ncc45)nc(N4CCOCC4)c3s2)CC1 [Pictilisib]
HS02 cells; [4]
  GI50: > 10 µM

## Cc1nc(Nc2ncc(C(=O)Nc3c(C)cccc3Cl)s2)cc(N2CCN(CCO)CC2)n1 [Dasatinib, dasatinib]
HS01 cells; [3]
  GI50: > 10000 nM
[1]; dasatinib 100 and 400nM alone or in combination
  phosphorylated FAK-Tyr576 and Src-Tyr527: Dose-dependent decreases
HS02 cells; [4]
  GI50: > 10 µM

## CNC(=O)c1ccccc1Nc1cc(Nc2ccc(N3CCOCC3)cc2OC)ncc1C(F)(F)F [PND-1186]
HS01 cells; [3]
  GI50: > 10000 nM
HS02 cells; [4]
  GI50: > 10 µM

## CN(C)C1CCN(C(=O)c2ccc(NC(=O)Nc3ccc(-c4nc(N5CCOCC5)nc(N5CCOCC5)n4)cc3)cc2)CC1 [Gedatolisib]
HS01 cells; Homo sapiens, 72 h
  GI50: 80 nM
HS02 cells; Homo sapiens, 72 h
  GI50: 0.09 µM

## CN(c1ncccc1CNc1nc(Nc2ccc3c(c2)CC(=O)N3)ncc1C(F)(F)F)S(C)(=O)=O [PF-00562271]
HS02 cells; [6]
  GI50: 6.5 µM and 3.8 µM
